The values that follow are results of earlier work, collected in US20040138296A1, “Amyloid immunization and Cox-2 inhibitors for the treatment of alzheimer's disease” (Pharmacia Corporation, priority 2002, published 2004).

One data set deals with neurons. Particulars: Abeta (25-35) and Abeta (1-40).
For data set [1], the system named is AD patients. Particulars: for other adverse effects: metrifonate in Phase III trials.
Data set [2] has as its system glia reaction, iNOS production. Particulars: once a day, seven days following the injection.
In data set [3] the test system is mild or moderately impaired Alzheimer's disease patients. Particulars: 100-150 mg, 6 months.
The next data set relates to NG108-15 cells. Particulars: by inhibition of APP mRNA level.
Data set [4] concerns microglial and astrocytic activation. Particulars: adult rats, Abeta (1-42) into nucleus basalis.
For data set [5], the system named is AD patients. Particulars: over 300 AD patients.

For the compound `CCN1CC/C(=C\c2cc(C(C)(C)C)c(O)c(C(C)(C)C)c2)S1(=O)=O` [Compound S-2474], the “Abeta induced cell death of neurons” value with neurons is listed as “significantly prevented”.

`COc1cc2c(cc1OC)C(=O)C(CC1CCN(Cc3ccccc3)CC1)C2` (centres unmarked) [Donepezil]: the AD-associated deterioration result in the data set with AD patients [1] (controlled trials, mild to moderately severe AD patients) is listed as “can delay AD-associated deterioration”. In the data set with AD patients [1] (patients), the gastrointestinal side effects entry is recorded as “relatively low incidence of gastrointestinal side effects”.

On to `CCN(C)C(=O)Oc1cccc([C@H](C)N(C)C)c1` [Rivastigmine], for which the duration of action with AD patients [1] (human, in vivo) is 10 h. Further, in the data set with AD patients [1] (patients), the gastrointestinal side effects result is on record as “some gastrointestinal side effects” and the other adverse effects result is given as “weight loss”.

On to `Nc1c2c(nc3ccccc13)CCCC2` [Tacrine], for which, in the data set with AD patients [1] (cholinesterase inhibitor in AD use), the half-life entry is on record as “short half-life”. The hepatotoxicity entry with AD patients [1] (patients) is given as “hepatotoxic effects in a number of patients”.

For `CC(C)Cc1ccc(C(C)C(=O)O)cc1` (centres unmarked) [ibuprofen], in data set [2], the astrocytic reaction entry is on record as “no effect on astrocytic reaction”, the microglia reaction entry is “attenuated microglia reaction” and the “number of iNOS-positive cells” value was “reduced the number of iNOS-positive cells”.

`COc1ccc2c(c1)c(CC(=O)O)c(C)n2C(=O)c1ccc(Cl)cc1` [indomethacin]: the “cognitive decline versus placebo” value in data set [3] is reported as “appeared to protect the patients”. In the data set on NG108-15 cells, the “production of amyloid β-peptide and a secreted form of APP” value is reported as “suppressed production”.

For the compound `COP(=O)(OC)C(O)C(Cl)(Cl)Cl` (centres unmarked) [metrifonate], in the data set on AD patients [1] (patients), the other adverse effects result was “leg cramps and muscle cramps”.

As to `CS(=O)(=O)Nc1ccc([N+](=O)[O-])cc1Oc1ccccc1` [nimesulide, N-(4-Nitro-2-phenoxy-phenyl)-methanesulfonamide], in data set [2], the astrocytic reaction result was “no effect on astrocytic reaction”, the microglia reaction result is “attenuated microglia reaction” and the “number of iNOS-positive cells” value is “reduced the number of iNOS-positive cells”.

`CS(=O)(=O)c1ccc(C2=C(c3ccccc3)C(=O)OC2)cc1` [rofecoxib]: the “microglial and astrocytic activation” value in data set [4] is “attenuated microglial and astrocytic activation”.

As to `C#CCN(C)[C@H](C)Cc1ccccc1` [selegeline, Selegiline], the “progression of the disease” value with AD patients [5] is reported as “slow the progression of the disease”.

On to `Cc1c(C)c2c(c(C)c1O)CC[C@@](C)(CCC[C@H](C)CCC[C@H](C)CCCC(C)C)O2` [vitamin E, alpha-tocopherol], for which, in the data set with AD patients [5], the “progression of the disease” value was “slow the progression of the disease”.
